Experimental data from ChEMBL document CHEMBL3872207, “Aromatic heterocyclic esters of podophyllotoxin exert anti-MDR activity in human leukemia K562/ADR cells via ROS/MAPK signaling pathways” (Eur J Med Chem, 2016).
Calls of active or inactive are those of the source. The calls are words filed in the database; no cut-off is given here.

Experiments:
K562/Adr [1] = assay: Induction of apoptosis in human K562/ADR cells assessed as late apoptotic cells at 0.1 uM pretreated with MAPK inhibitor U0126 for 1 hr followed by compound addition after 48 hrs by Annexin V-APC/7-AAD staining based flow cytometry (reference value: 1.69%); assay type: functional; set-up: scale not given: the % may be the effect or the level left
K562/Adr [2] = assay: Induction of ERK1/2 phosphorylation in human K562/ADR cells assessed as ratio of phosphorylated ERK1/2 to beta-actin level at 0.1 uM measured after 48 hrs by Western blotting (reference value: 0.22); assay type: cell-based
[3] = Downregulation of CyclinB1 expression in human K562/ADR cells assessed as ratio of CyclinB1 to beta-actin level at 0.1 uM pretreated with ROS scavenger NAC for 2 hrs followed by compound addition measured after 48 hrs by Western blot analysis (reference value: 0.77); assay type: functional, cell-based
[4] = Downregulation of CDK1 expression in human K562/ADR cells assessed as ratio of CDK1 to beta-actin level at 0.1 uM pretreated with MAPK inhibitor U0126 for 1 hr followed by compound addition measured after 48 hrs by Western blot analysis (reference value: 0.53); assay type: functional, cell-based
K562/Adr [5] = assay: Induction of apoptosis in human K562/ADR cells assessed as membrane blebbing at 0.1 uM measured after 24 hrs by Hoechst33342 staining-based inverted fluorescent microscopic analysis; assay type: functional, cell-based
[6] = Downregulation of P-gp expression in human K562/ADR cells assessed as ratio of P-gp to beta-actin level at 0.1 uM pretreated with MAPK inhibitor U0126 for 1 hr followed by compound addition measured after 48 hrs by Western blot analysis (reference value: 0.63); assay type: functional, cell-based
K562/Adr [7] = assay: Induction of apoptosis in human K562/ADR cells assessed as chromatin condensation at 0.1 uM measured after 24 hrs by Hoechst33342 staining-based inverted fluorescent microscopic analysis; assay type: functional, cell-based
[8] = Downregulation of CyclinA expression in human K562/ADR cells assessed as ratio of CyclinA to beta-actin level at 0.1 uM pretreated with MAPK inhibitor SP600125 for 1 hr followed by compound addition measured after 48 hrs by Western blot analysis (reference value: 0.64); assay type: functional, cell-based
K562/Adr [9] = assay: Induction of apoptosis in human K562/ADR cells assessed as viable cells at 0.1 uM pretreated with ROS scavenger NAC for 2 hrs followed by compound addition after 48 hrs by Annexin V-APC/7-AAD staining based flow cytometry (reference value: 95.31%); assay type: functional; conditions: read-out: Activity
K562/Adr [10] = assay: Induction of apoptosis in human K562/ADR cells assessed as early apoptotic cells at 0.1 uM pretreated with MAPK inhibitor SP600125 for 1 hr followed by compound addition after 48 hrs by Annexin V-APC/7-AAD staining based flow cytometry (reference value: 2.74%); assay type: functional; set-up: scale not given: the % may be the effect or the level left
K562/Adr [11] = assay: Induction of apoptosis in human K562/ADR cells assessed as ratio of cleaved PARP to beta-actin level at 0.1 uM pretreated with MAPK inhibitor SB203580 for 1 hr followed by compound addition measured after 48 hrs by Western blot analysis (reference value: 0.04); assay type: functional
K562/Adr [12] = assay: Induction of apoptosis in human K562/ADR cells assessed as early apoptotic cells at 0.1 uM pretreated with MAPK inhibitor U0126 for 1 hr followed by compound addition after 48 hrs by Annexin V-APC/7-AAD staining based flow cytometry (reference value: 2.74%); assay type: functional; set-up: scale not given: the % may be the effect or the level left
K562/Adr [13] = assay: Induction of apoptosis in human K562/ADR cells assessed as necrotic cells at 0.1 uM pretreated with MAPK inhibitor SB203580 for 1 hr followed by compound addition after 48 hrs by Annexin V-APC/7-AAD staining based flow cytometry (reference value: 0.26%); assay type: functional; set-up: scale not given: the % may be the effect or the level left
K562/Adr [14] = assay: Induction of ERK1/2 phosphorylation in human K562/ADR cells assessed as ratio of phosphorylated ERK1/2 to beta-actin level at 0.1 uM pretreated with MAPK inhibitor U0126 for 1 hr followed by compound addition after 48 hrs by Western blotting method (reference value: 0.22); assay type: cell-based
K562/Adr [15] = assay: Induction of apoptosis in human K562/ADR cells assessed as early apoptotic cells at 0.1 uM pretreated with ROS scavenger NAC for 2 hrs followed by compound addition after 48 hrs by Annexin V-APC/7-AAD staining based flow cytometry (reference value: 2.74%); assay type: functional
[16] = Potency index, ratio of etoposide IC50 to compound IC50 for antiproliferative activity against human K562/ADR cells; assay type: functional
[17] = Antiproliferative activity against human K562 cells measured after 72 hrs by CCK8 assay; assay type: functional, cell-based; conditions: K562, 72 h
K562/Adr [18] = assay: Induction of apoptosis in human K562/ADR cells assessed as cell shrinkage at 0.1 uM measured after 24 hrs by Hoechst33342 staining-based inverted fluorescent microscopic analysis; assay type: functional
[19] = Downregulation of CyclinA expression in human K562/ADR cells assessed as ratio of CyclinA to beta-actin level at 0.1 uM measured after 48 hrs by Western blot analysis (reference value: 0.64); assay type: functional, cell-based
[20] = Downregulation of CyclinA expression in human K562/ADR cells assessed as ratio of CyclinA to beta-actin level at 0.1 uM pretreated with MAPK inhibitor SB203580 for 1 hr followed by compound addition measured after 48 hrs by Western blot analysis (reference value: 0.64); assay type: functional, cell-based
[21] = target: MAP kinase p38 (Homo sapiens) (UniProt O15264+Q15759+Q16539+P53778); assay: Induction of P38 phosphorylation in human K562/ADR cells assessed as ratio of phosphorylated p38 to beta-actin level at 0.1 uM pretreated with MAPK inhibitor SP600125 for 1 hr followed by compound addition after 48 hrs by Western blotting method (reference value: 0.25); assay type: cell-based
K562/Adr [22] = assay: Induction of intracellular ROS accumulation in human K562/ADR cells assessed as fluorescence intensity at 0.1 uM treated 2 hrs post ROS scavenger NAC addition measured after 24 hrs by DCFH-DA probe based flow cytometry relative to vehicle-treated control; assay type: functional
K562/Adr [23] = assay: Induction of ERK1/2 phosphorylation in human K562/ADR cells assessed as ratio of phosphorylated ERK1/2 to beta-actin level at 0.1 uM pretreated with MAPK inhibitor SP600125 for 1 hr followed by compound addition after 48 hrs by Western blotting method (reference value: 0.22); assay type: cell-based
K562/Adr [24] = assay: Induction of apoptosis in human K562/ADR cells assessed as viable cells at 0.1 uM pretreated with MAPK inhibitor SB203580 for 1 hr followed by compound addition after 48 hrs by Annexin V-APC/7-AAD staining based flow cytometry (reference value: 95.31%); assay type: functional; conditions: read-out: Activity
K562 = assay: Resistance index, ratio of IC50 for human K562/ADR cells to IC50 for human K562 cells; assay type: functional
[25] = Downregulation of CyclinA expression in human K562/ADR cells assessed as ratio of CyclinA to beta-actin level at 0.1 uM pretreated with ROS scavenger NAC for 2 hrs followed by compound addition measured after 48 hrs by Western blot analysis (reference value: 0.64); assay type: functional, cell-based

## COc1cc([C@@H]2c3cc4c(cc3[C@H](OC(=O)c3ccco3)[C@H]3COC(=O)[C@H]23)OCO4)cc(OC)c1OC
K562/Adr [1]
  Activity: 31.44%
K562/Adr [2]
  Ratio: 0.33
[3]
  Ratio: 0.66
[4]
  Ratio: 0.26
K562/Adr [5]
  Activity: Active
[6]
  Ratio: 0.35
K562/Adr [7]
  Activity: Active
[8]
  Ratio: 0.31
K562/Adr [9]
  viability at 0.1 µM: 65.5%
K562/Adr [10]
  Activity: 7.8%
K562/Adr [11]
  Ratio: 0.48
K562/Adr [12]
  Activity: 8.73%
K562/Adr [13]
  Activity: 2.86%
K562/Adr [14]
  Ratio: 0.01
K562/Adr [15]
  Activity: 8.06%
[16]
  Ratio IC50: 69.093
[17]
  IC50: 25 nM
K562/Adr [18]
  Activity: Active
[19]
  Ratio: 0.15
[20]
  Ratio: 0.34
[21]
  Ratio: 0.19
K562/Adr [22]
  fold change (FC): 0.49
K562/Adr [23]
  Ratio: 0.06
K562/Adr [24]
  viability at 0.1 µM: 59.4%
K562
  Ratio IC50: 1.28
[25]
  Ratio: 0.58
